How the values were obtained:
Format in all cases: cell-based
[1] = tested on: apoE expression in human CCF-STTG1 astrocytoma cells; test: ApoE ELISA on conditioned medium of human CCF-STTG1 astrocytoma cells; conditions: 10 μM compound, 24 hours; for ApoE (ng/ml) Normalized for Cell Count and Vehicle Treatment: normalized to DMSO treated cells
Procedure: The triarylmethyl amine compounds, including the ones shown in TABLE 1, were tested for biological effects on mammalian cells in an ELISA, an assay well-known in the art. […] The ELISA technique involves immobilizing an apoE-specific capture antibody to a 96-well plate, addition of sample (conditioned medium from astrocytoma cells treated with the compound for 24 hours), and detection of the bound apoE using a second apoE-specific biotinylated antibody and streptavidin-HRP.
The Mabtech ELISA kit detects the presence of three apoE isoforms: apoE2, apoE3, and apoE4.
All triarylmethyl amine compounds listed in Table 1 were individually dissolved in DMSO at a stock concentration of 10 mM and individually tested. For ELISA's, 1.6×10^4 cells/96-well were grown for 1 day in RPMI, followed by a 24 hour equilibration in serum-free Opti-MEM (Life Technologies). Treatments were carried out in quadruplicate with 100 μL of fresh Opti-MEM containing 10 μM of compound or vehicle (0.1% DMSO) for 24 hours. Conditioned medium from these samples were then diluted 2-fold with incubation buffer (PBS+0.05% Tween-20+0.1% BSA) and analyzed with a human apoE HRP ELISA kit (Mabtech) according to the manufacturer's protocol. ApoE concentration in the sample was calculated based on a standard curve derived using known amounts of purified apoE supplied with the kit. The cells in the 96-well plates were used to determine the total cell number using CyQUANT reagent (Life Technologies).
The astrocytoma cells were treated for 24 hours with a 10 μM concentration of each of the individual 37 compounds listed in Table 1.

[2] = tested on: apoE expression in human HepG2 liver cells; test: ApoE ELISA on conditioned medium of human HepG2 liver cells; conditions: 10 μM compound, 24 hours, normalized to DMSO treated wells
Procedure: To obtain the data shown in Table 4, the human HepG2 liver cells (ATCC, HB-8065 were maintained in RPMI medium (Mediatech) supplemented with 10 mM HEPES, 1 mM sodium pyruvate, 4.5 g/L glucose, 1% penicillin/streptomycin, and 10% bovine growth serum (HyClone) at 37° C. with 5% CO2
Compound Nos. 13, 31, 33, 35 or 36—as listed in Table 1—were individually dissolved in DMSO at a stock concentration of 10 mM and individually tested. For ELISA's, 1.6×10^4 cells/96-well were grown for 1 day in RPMI, followed by a 24 hour equilibration in serum-free Opti-MEM (Life Technologies). Treatments were carried out in quadruplicate with 100 μL of fresh Opti-MEM containing 10 μM of compound or vehicle (0.1% DMSO) for 24 hours. Conditioned medium from these samples were then diluted 2-fold with incubation buffer (PBS+0.05% Tween-20+0.1% BSA) and analyzed with a human apoE HRP ELISA kit (Mabtech) according to the manufacturer's protocol.
A standard curve was used to derive sample apoE concentrations. The cells in the 96-well plates were used to determine the total cell number using CyQUANT reagent (Life Technologies). Sample apoE concentrations were adjusted for total cell number and then normalized to DMSO treated wells. Results for each set of compounds tested in parallel (n=3) were analyzed by a one-tailed t-test.
The data in Table 3 were obtained by using an apoE ELISA assay to monitor human HepG2 cell production of apoE after the HepG2 cells were treated with Compound Nos. 13, 31, 33, 35 and 36, as listed on Table 1. The HepG2 liver cells were treated for 24 hours with a 10 μM concentration of each of Compound Nos. 13, 31, 33, 35 and 36, as listed on Table 1.

[3] = tested on: apoE mRNA in CCF-STTG1 human astrocytoma cells; test: ApoE mRNA qPCR in CCF-STTG1 astrocytoma cells; parameters: unit not given here; conditions: 24 hours in OptiMEM, HPRT1 and β-actin as housekeeping genes
Text: (§1) Quantitative reverse transcription polymerase chain reaction (qPCR) is a laboratory technique used to amplify and quantify the steady-state levels of apoE messenger RNA (mRNA) by converting the copy DNA (cDNA). The targeted DNA molecule quantity can be determined as a relative amount when normalized to housekeeping genes. For qPCR, reverse transcription is used to quantify the amount of mRNA produced through the balance between transcription rate and degradation rates. The amount of mRNA available is the one factor which can affect the overall protein expression. Quantification of the cDNA produced during reverse transcription of the mRNA may be accomplished by detecting the fluorescent markers, such as fluorophores, that selectively hybridize with the DNA target.
(§2) The CCF-STTG1 (ATCC, CRL-1718) human astrocytoma cells were treated with one of the selected triarylmethyl amine compounds for 24 hours in OptiMEM. The selected triarylmethyl amine compounds were individually dissolved in DMSO at a stock concentration of 10 mM and individually tested. Total RNA was extracted using the RNeasy Plus Mini Kit (Qiagen). Genomic DNA (gDNA) was removed by centrifugation through gDNA eliminator spin columns included with the kit. Samples of total RNA were reverse transcribed following instructions in the Superscript III first strand synthesis kit (Life Technologies). ApoE, HPRT1, and β-actin cDNA levels were quantified by TaqMan multiplex quantitative PCR using a CFX96 Real-Time PCR Detection System (BioRad). Reactions were carried out with SensiMix II Probe Master Mix (Bioline) in a 20 μL total volume containing 5-30 ng of cDNA template. Fluorescent labels and primer/probe concentrations were as follows: apoE (5′-FAM, 600 nM/300 nM), HPRT1 (5′-TEX-615, 100 nM/25 nM), and β-actin (5′-Cy5, 100 nM/25 nM). ZEN double quenched probes (Integrated DNA technologies) were used for all apoE reactions. The reactions were performed in triplicate and the results were analyzed using qbasePLUS (Biogazelle) with HPRT1 and β-actin as housekeeping genes.

[4] = tested on: apoE mRNA in HepG2 human liver cells; test: ApoE mRNA qPCR in HepG2 liver cells; conditions: 24 hours in OptiMEM, HPRT1 and β-actin as housekeeping genes
Text: as §1
as §2, with “HepG2” for “CCF-STTG1”, “HB-8065)” for “CRL-1718)”, “liver” for “astrocytoma”, “μl” for “μL”

[5] = tested on: apoE mRNA in H4 human neuroglioma cells; test: ApoE mRNA qPCR in H4 neuroglioma cells; parameters: unit not given here; conditions: 24 hours in OptiMEM, HPRT1 and β-actin as housekeeping genes
Text: as §1
The selected triarylmethyl amine compounds were individually dissolved in DMSO at a stock concentration of 10 mM and individually tested. Total RNA was extracted using the RNeasy Plus Mini Kit (Qiagen). Genomic DNA (gDNA) was removed by centrifugation through gDNA eliminator spin columns included with the kit. Samples of total RNA were reverse transcribed following instructions in the Superscript III first strand synthesis kit (Life Technologies). ApoE, HPRT1, and β-actin cDNA levels were quantified by TaqMan multiplex quantitative PCR using a CFX96 Real-Time PCR Detection System (BioRad).

Row | SMILES | Inhibition Percentage of ApoE Expression [1] [%] | ApoE (ng/ml) Normalized for Cell Count and Vehicle Treatment [1] [ng/mL] | ApoE (ng/ml) Normalized for Cell Count and Vehicle Treatment [2] [ng/mL] | ApoE (ng/ml) Normalized for Cell Count and Vehicle Treatment [3] | ApoE (ng/ml) Normalized for Cell Count and Vehicle Treatment [4] | Inhibition Percentage of ApoE Expression ([1]; listed as compound 31) | Inhibition Percentage of ApoE Expression ([1]; listed as compound 33) | ApoE (ng/ml) Cell Count Normalized for Cell Count and Vehicle Treatment [5] | Inhibition Percentage of ApoE Expression ([1]; listed as compound 35) | Inhibition Percentage of ApoE Expression ([1]; listed as compound 36)
1 | CN(C)C(c1ccccc1)(c1ccccc1)c1ccccc1 [Compound 1] | 8 | 0.92 | – | – | – | – | – | – | – | –
2 | c1ccc(C(NCC2CCCCC2)(c2ccccc2)c2ccccc2)cc1 [Compound 13, cyclohexylmethyl-trityl-amine] | – | 0.49 | 1.03 | 1.10 | 1.16 ratio to vehicle | – | – | – | – | –
3 | COc1ccc(C(c2ccccc2)(c2ccccc2)N(C)C)cc1 [Compound 16] | 35 | 0.65 | – | – | – | – | – | – | – | –
4 | CCN(CC)C(c1ccccc1)(c1ccccc1)c1ccc(OC)cc1 [Compound 17, Diethyl-[(4-methoxy-phenyl)-diphenyl-methyl]-amine] | 17 | 0.83 | – | – | – | – | – | – | – | –
5 | CN(C)C(c1ccccc1)(c1ccccc1)c1ccc2ccccc2c1 [Compound 28] | 35 | 0.65 | – | – | – | – | – | – | – | –
6 | c1ccc(C(c2ccccc2)(c2ccc3ccccc3c2)N2CCCC2)cc1 [Compound 31, 1-(naphthalen-2-yl-diphenyl-methyl)-pyrrolidine] | 49 | 0.51 | 0.64 | 0.86 | 0.86 ratio to vehicle | about 49% | – | – | – | –
7 | c1ccc(C(c2ccccc2)(c2ccc3ccccc3c2)N2CCOCC2)cc1 [Compound 33, 4-(Naphthalen-2-yl-diphenyl-methyl)-morpholine] | 46 | 0.54 | 0.77 | 0.88 | 1.22 ratio to vehicle | – | about 46% | 0.59 | – | –
8 | CC(C)CNC(c1ccccc1)(c1ccccc1)c1ccc2ccccc2c1 [Compound 35, isobutyl-(naphthalen-2-yl-diphenyl-methyl)-amine] | 50 | 0.50 | 0.78 | 0.87 | 1.03 ratio to vehicle | – | – | – | about 50% | –
9 | CCC(C)NC(c1ccccc1)(c1ccccc1)c1ccc2ccccc2c1 (stereo not shown) [Compound 36, sec-butyl-(naphthalen-2-yl-diphenyl-methyl)-amine] | 66 | 0.34 | 0.81 | 0.85 | 0.93 ratio to vehicle | – | – | – | – | about 66%

Reference: patent US8633195B1, “Method of inhibiting apolipoprotein-E expression comprising administering a triarylmethyl amine compound” (Fresno California State University, priority 2012, dated 2014)
